The text below walks through data of ChEMBL document CHEMBL1152086, “Synthesis and in vitro anti-HIV and antitumor activity of new 2-chloroethyl thiocarbamates” (1995).

In one test the test system is SCLC. Description: In vitro anticancer activity against 2 NCI SCLC cell lines; inactive. In kind it is functional, cell-based.
The test system of a further test is NSCLC. Description: In vitro anticancer activity against 11 NCI NSCLC cell lines; inactive. In kind it is functional, cell-based.
Test [1] has as its system NCI. The test can be described thus: In vitro anticancer activity against 6 NCI ovarian cancer cell lines; inactive. Format: functional, cell-based.
Test [2] has as its system NCI. The test can be described thus: In vitro anticancer activity against 8 NCI CNS cancer cell lines; inactive. In kind it is functional, cell-based.
Test [3] in a line: In vitro anticancer activity against 9 NCI melanoma cell lines; inactive. In kind it is functional.
In test [4] the test system is NCI. The test can be described thus: In vitro anticancer activity against 9 NCI renal cancer cell lines; inactive. In kind it is functional, cell-based.
Test [5] has as its system CCRF-CEM. The test can be described thus: In vitro anticancer activity against CCRF-CEM leukemia cell line. Format: functional. To be noted: Homo sapiens.
The subject of another test is HL-60. The test can be described thus: In vitro anticancer activity against HL-60(TB) leukemia cell line. Format: functional. As to conditions: Homo sapiens.
A further test deals with K562. Description: In vitro anticancer activity against K-562 leukemia cell line. Format: functional. As to conditions: Homo sapiens.
The test system of the next test is MOLT-4. The test can be described thus: In vitro anticancer activity against MOLT-4 leukemia cell line. Format: functional. To be noted: Homo sapiens.
A further test concerns RPMI-8226. Description: In vitro anticancer activity against RPMI-8226 leukemia cell line. In kind it is functional. As to conditions: Homo sapiens.
For another test, the system named is SR. Description: In vitro anticancer activity against SR leukemia cell line. To be noted: Homo sapiens. In kind it is functional.
For a further test, the system named is Cancer cell lines. The test can be described thus: In vitro anticancer activity against 9 NCI colon cancer cell lines; inactive. Format: functional, cell-based.
Test [6] concerns CCRF-CEM. The test can be described thus: In vitro anticancer activity against CCRF-CEM leukemia cell line.(Maximum Concentration). In kind it is functional. To be noted: Homo sapiens.

Activity calls are given as the source filed them. No cut-off for these calls is given here.

As to `CCOC(=O)CSC(=O)NCCCl`, the result (in the test with SCLC; with NSCLC; in the test on NCI [1]; in the test on NCI [2]; in test [3]; in the test with NCI [4]) was inactive. Further, the outcome with Cancer cell lines was inactive. Also, the GI50 (in general, the concentration at which growth is held to half of that of the control) was 7.22 µM in the test on CCRF-CEM [5]; 22.3 µM in the test on HL-60; 29 µM in the test with K562; greater than 100 µM in the test on MOLT-4; greater than 100 µM in the test with RPMI-8226; greater than 100 µM in the test on SR.

For the compound `O=C(NCCCl)SCCO`, the outcome (in the test on SCLC; with NSCLC; in the test on NCI [1]; in the test on NCI [2]; in [3]; in the test with NCI [4]) was inactive. In the test on Cancer cell lines, the result was inactive. In addition, the GI50 in the test with CCRF-CEM [6], in the test with HL-60, in the test with K562, in the test with MOLT-4, with RPMI-8226 and in the test on SR was greater than 100 µM each time.

For the compound `O=C(NCCCl)Sc1ccccc1`, the outcome (in the test with SCLC; in the test with NSCLC; in the test with NCI [1]; in the test with NCI [2]; in test [3]; with NCI [4]) was inactive. For the same compound, the outcome in the test on Cancer cell lines was inactive.
